In patent US10927105B1 (Lundbeck La Jolla Research Center, Inc., priority 2017, dated 2021):

Molecular target: MAGL (Homo sapiens (Human), UniProt Q99685)
Assay: In vitro competitive activity-based protein profiling (human prefrontal cortex membrane fractions, FP-Rh probe), MAGL band
Conditions: read-out: MAGL IC50 (μM) (human); human prefrontal cortex membrane fractions
Experimental: Biological Evaluation In Vitro Competitive Activity-Based Protein Profiling.
Proteomes (mouse brain membrane fraction for mouse assays; human prefrontal cortex membrane fractions for human assays) (50 mL, 1.0 mg/mL total protein concentration) were preincubated with varying concentrations of inhibitors at 37° C. After 30 min, FP-Rh (1.0 mL, 50 mM in DMSO) was added and the mixture was incubated for another 30 min at 37° C. Reactions were quenched with SDS loading buffer (15 μL-4×) and run on SDS-PAGE.

Chain of MAGL (Q99685 whole entry): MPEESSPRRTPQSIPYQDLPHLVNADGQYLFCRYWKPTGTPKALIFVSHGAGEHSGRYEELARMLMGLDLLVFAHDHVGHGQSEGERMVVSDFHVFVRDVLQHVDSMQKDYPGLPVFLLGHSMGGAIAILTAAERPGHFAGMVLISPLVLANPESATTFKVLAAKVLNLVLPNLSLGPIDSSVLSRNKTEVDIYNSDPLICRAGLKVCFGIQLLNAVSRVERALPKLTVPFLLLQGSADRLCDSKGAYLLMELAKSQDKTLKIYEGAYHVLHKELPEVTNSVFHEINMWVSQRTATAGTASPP

Structure (SMILES)	IC50 [µM]
C[C@H]1CN(Cc2cccc(Oc3cc(C(F)(F)F)ccn3)c2)CCN1C(=O)n1ccc(C(=O)O)n1 [Example 373, (S)-1-(2-methyl-4-(3-((4-(trifluoromethyl)-pyridin-2-yl)oxy)benzyl)-piperazine-1-carbonyl)-1H-pyrazole-3-carboxylic acid]	< 0.1
C[C@@H]1CN(Cc2cccc(Oc3cc(C(F)(F)F)ccn3)c2)CCN1C(=O)n1ccc(C(=O)O)n1 [Example 374, (R)-1-(2-methyl-4-(3-((4-(trifluoromethyl)-pyridin-2-yl)oxy)benzyl)-piperazine-1-carbonyl)-1H-pyrazole-3-carboxylic acid]	< 0.1
O=C(O)c1nn(C(=O)N2CCN(Cc3cc(F)cc(Oc4ccc(Cl)cc4)c3)CC2)cc1Cl [Example 378, 4-chloro-1-(4-(3-(4-chlorophenoxy)-5-fluorobenzyl)-piperazine-1-carbonyl)-1H-pyrazole-3-carboxylic acid]	< 0.1
O=C(O)c1ccn(C(=O)N2CCN(Cc3ccc(C(F)(F)F)cc3N3CC4CCC(C3)O4)CC2)n1 [Example 380, 1-(4-(2-(8-oxa-3-azabicyclo[3.2.1]-octan-3-yl)-4-(trifluoromethyl)-benzyl)piperazine-1-carbonyl)-1H-pyrazole-3-carboxylic acid]	< 0.1
CN(Cc1cc(N2CCCC2)cc(C(F)(F)F)c1)C1(C)CCN(C(=O)n2ccc(C(=O)O)n2)CC1 [Example 381, 1-(4-methyl-4-(methyl(3-(pyrrolidin-1-yl)-5-(trifluoromethyl)-benzyl)amino)-piperidine-1-carbonyl)-1H-pyrazole-3-carboxylic acid]	< 0.1
CN(Cc1cc(C(F)(F)F)ccc1N1CCCC1)C1(C)CCN(C(=O)n2ccc(C(=O)O)n2)CC1 [Example 384, 1-(4-methyl-4-(methyl(2-(pyrrolidin-1-yl)-5-(trifluoromethyl)-benzyl)amino)-piperidine-1-carbonyl)-1H-pyrazole-3-carboxylic acid]	< 0.1
CN(Cc1ccc(C(F)(F)F)c(N2CCCC2)c1)C1(C)CCN(C(=O)n2ccc(C(=O)O)n2)CC1 [Example 385, 1-(4-methyl-4-(methyl(3-(pyrrolidin-1-yl)-4-(trifluoromethyl)-benzyl)amino)-piperidine-1-carbonyl)-1H-pyrazole-3-carboxylic acid]	< 0.1
O=C(O)c1nn(C(=O)N2CCC3(CCN(Cc4cc(Cl)cc(C(F)(F)F)c4)C3)CC2)cc1Cl [Example 388, 4-chloro-1-(2-(3-chloro-5-(trifluoromethyl)-benzyl)-2,8-diazaspiro-[4.5]decane-8-carbonyl)-1H-pyrazole-3-carboxylic acid]	< 0.1
NC(=O)c1ccn(C(=O)N2CCC3(CCCN3C(=O)c3cc4ccc(C(F)(F)F)cc4s3)CC2)n1 [Example 389, 1-(1-(6-(trifluoromethyl)-benzo-[b]thiophene-2-carbonyl)-1,8-diazaspiro-[4.5]decane-8-carbonyl)-1H-pyrazole-3-carboxamide]	< 0.1
O=C(O)c1ccn(C(=O)N2CCC3(CCN(Cc4cc(N5CCCC5)ccc4C(F)(F)F)C3)CC2)n1 [Example 391, 1-(2-(5-(pyrrolidin-1-yl)-2-(trifluoromethyl)-benzyl)-2,8-diazaspiro[4.5]-decane-8-carbonyl)-1H-pyrazole-3-carboxylic acid]	< 0.1
NC(=O)c1ccn(C(=O)N2CC3CN(Cc4ccc(C5(O)CCOCC5)cc4C(F)(F)F)CC3C2)n1 (stereo not shown) [Example 396, 1-(5-(4-(4-hydroxytetrahydro-2H-pymn-4-yl)-2-(trifluoromethyl)-benzyl)-octahydropyrrolo-[3,4-c]pyrrole-2-carbonyl)-1H-pyrazole-3-carboxamide]	< 0.1
CN(Cc1ccc(C(F)(F)F)cc1N1CCCCC1)C1(C)CCN(C(=O)n2ccc(C(=O)O)n2)CC1 [Example 397, 1-(4-methyl-4-(methyl(2-(piperidin-1-yl)-4-(trifluoromethyl)-benzyl)amino)-piperidine-1-carbonyl)-1H-pyrazole-3-carboxylic acid]	< 0.1
Cc1cn(C(=O)N2CCC(C)(N(C)Cc3ccc(C(F)(F)F)cc3N3CCCC3)CC2)nc1C(=O)O [Example 398]	< 0.1
